# In publication PMC10178091, “The GRPR Antagonist [^99mTc]Tc-maSSS-PEG2-RM26 towards Phase I Clinical Trial: Kit Preparation, Characterization and Toxicity” (Diagnostics, 2023):
# Where two headings read alike, the source gives them in different places. Where a SMILES comes first, the peptide text is derived from it. [ ]: non-standard residue; d: D form. The star is where a group is joined. Sta = CC(C)C[C@H](N)[C@@H](O)CC(=O)O; Mercaptoacetyl = O=C(CS)*; AEEA = NCCOCCOCC(=O)O
# Experiments:
# [1] = tested on: GRPR; assay: Ex vivo biodistribution / in vivo GRPR targeting in PC-3 tumor-bearing mice; parameters: species or system Balb/c nu/nu mice; conditions: 1 h pi, kit stored 18 months, p < 0.001, n = 4
# Experimental: (§1) Randomly selected vials were stored at 4 °C at our laboratory for long-term testing. Within 18 months of storage, the vials were radiolabeled under the same conditions mentioned earlier. Additionally, the GRPR-binding in vitro was tested on a different batch of PC-3 cells, following the same protocol mentioned earlier. The in vivo GRPR-targeting properties of [^99mTc]Tc-maSSS-PEG2-RM26 were tested on PC-3 tumor-bearing Balb/c nu/nu mice (the cells (6 × 10^6 cells/mouse) were inoculated into the mice 4 weeks prior to the experiment). On the day of the experiment, when palpable tumors developed, a group of mice (n = 4) was injected with [^99mTc]Tc-maSSS-PEG2-RM26 (30 kBq/40 pmol) and another group (n = 4) was additionally co-injected with NOTA-PEG2-RM26 (5 nmol) to block GRPR. The mice were euthanized 1 h post-injection and the organs of interest were collected, weighed, and measured for their radioactivity content.
# [2] = target: T1, GRPR (Homo sapiens, UniProt P30550); assay: as above; parameters: species or system Balb/c nu/nu mice; conditions: 1 h pi, kit stored 18 months, p < 0.001, n = 4
# T1 construct: endogenous in cells; host or cells: PC-3 xenograft tumours in Balb/c nu/nu mice
# Experimental: as §1
# [3] = as above; parameters: species or system Balb/c nu/nu mice; conditions: mouse, total radioactivity, 1 h pi, n = 4; for tissue to tissue ratio at 1 h: 40 pmol, ± SD
# Experimental: as §1
# [4] = target: T2, GRPR on PC-3 cells (Homo sapiens, UniProt P30550); assay: In vitro binding specificity assay on PC-3 cells, with and without pre-blocking; conditions: 1 nM
# T2 construct: endogenous in cells; host or cells: PC-3 cells
# Experimental: The radiolabeled peptide binding to GRPR was tested in PC-3 cells (GRPR +) by the addition of 1 nM of [^99mTc]Tc-maSSS-PEG2-RM26 to the cells (~10^6 cells, in triplicates), with and without pre-blocking of receptors, by the addition of 1 µM of NOTA-PEG2-RM26 (10 min at room temperature). After incubation at 37 °C for 1 h, the cells were treated with trypsin-EDTA, collected, and measured for their radioactivity content.
# as §1
# [5] = parameters: method as in PMID 36980517; conditions: phase I clinical study; cited from earlier work
# [6] = target: GRPR; parameters: method as in PMID 33573232; conditions: cited from earlier work
# T2 sequence (P30550 whole entry): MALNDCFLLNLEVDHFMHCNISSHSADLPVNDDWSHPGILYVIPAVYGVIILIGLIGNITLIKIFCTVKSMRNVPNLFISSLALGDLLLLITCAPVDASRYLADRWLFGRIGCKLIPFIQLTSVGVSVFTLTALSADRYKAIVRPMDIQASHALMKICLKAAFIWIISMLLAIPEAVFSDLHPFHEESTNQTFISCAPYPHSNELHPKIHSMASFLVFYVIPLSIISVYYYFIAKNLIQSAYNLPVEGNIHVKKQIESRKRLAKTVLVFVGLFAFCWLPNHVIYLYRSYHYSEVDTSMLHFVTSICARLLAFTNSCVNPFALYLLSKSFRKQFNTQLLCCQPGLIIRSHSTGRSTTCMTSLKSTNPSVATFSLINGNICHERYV
# T1 sequence (P30550 whole entry): as above
compound,measurement,setting,value
"CC(C)C[C@H](NC(=O)C[C@H](O)[C@H](CC(C)C)NC(=O)[C@H](Cc1c[nH]cn1)NC(=O)CNC(=O)[C@@H](NC(=O)[C@H](C)NC(=O)[C@H](Cc1c[nH]c2ccccc12)NC(=O)[C@H](CCC(N)=O)NC(=O)[C@@H](Cc1ccccc1)NC(=O)COCCOCCNC(=O)[C@H](CO)NC(=O)[C@H](CO)NC(=O)[C@H](CO)NC(=O)CS)C(C)C)C(N)=O [[^99mTc]Tc-maSSS-PEG2-RM26, metal not drawn] (Mercaptoacetyl-SSS[AEEA][dF]QWAVGH[Sta]L-NH2)",Difference in pancreatic uptake between non-blocked and blocked groups,[1],4 fold
same,Difference in PC-3 tumor uptake between non-blocked and blocked groups,[2],6 fold
same,tissue uptake at 1 h,"[3]; Balb/c nu/nu, blood, PC-3 xenografts, 40 pmol / 30 kBq co-injected with 5 nmol NOTA-PEG2-RM26, average ± SD, read-out: Uptake in blood, blocked",0.3 ± 0.4 %ID/g
same,tissue uptake at 1 h,"[3]; Balb/c nu/nu, bone, PC-3 xenografts, 40 pmol / 30 kBq co-injected with 5 nmol NOTA-PEG2-RM26, average ± SD, read-out: Uptake in bone, blocked",0.042 ± 0.009 %ID/g
same,tissue uptake at 1 h,"[3]; Balb/c nu/nu, kidneys, PC-3 xenografts, 40 pmol / 30 kBq co-injected with 5 nmol NOTA-PEG2-RM26, average ± SD, read-out: Uptake in kidneys, blocked",5 ± 0.6 %ID/g
same,tissue uptake at 1 h,"[3]; Balb/c nu/nu, liver, PC-3 xenografts, 40 pmol / 30 kBq co-injected with 5 nmol NOTA-PEG2-RM26, average ± SD, read-out: Uptake in liver, blocked",1.7 ± 0.4 %ID/g
same,tissue uptake at 1 h,"[3]; Balb/c nu/nu, muscle, PC-3 xenografts, 40 pmol / 30 kBq co-injected with 5 nmol NOTA-PEG2-RM26, average ± SD, read-out: Uptake in muscle, blocked",0.032 ± 0.008 %ID/g
same,tissue uptake at 1 h,"[3]; Balb/c nu/nu, pancreas, PC-3 xenografts, 40 pmol / 30 kBq co-injected with 5 nmol NOTA-PEG2-RM26, average ± SD, read-out: Uptake in pancreas, blocked",1.4 ± 0.1 %ID/g
same,tissue uptake at 1 h,"[3]; Balb/c nu/nu, spleen, PC-3 xenografts, 40 pmol / 30 kBq co-injected with 5 nmol NOTA-PEG2-RM26, average ± SD, read-out: Uptake in spleen, blocked",0.13 ± 0.06 %ID/g
same,tissue to tissue ratio at 1 h,"[3]; Balb/c nu/nu, tumor and blood, PC-3 xenografts, read-out: Tumor-to-blood ratio, non-blocked group",30 ± 4
same,tissue to tissue ratio at 1 h,"[3]; Balb/c nu/nu, tumor and bone, PC-3 xenografts, read-out: Tumor-to-bone ratio, non-blocked group",78 ± 42
same,tissue to tissue ratio at 1 h,"[3]; Balb/c nu/nu, tumor and kidneys, PC-3 xenografts, read-out: Tumor-to-kidneys ratio, non-blocked group",1.3 ± 0.2
same,tissue to tissue ratio at 1 h,"[3]; Balb/c nu/nu, tumor and liver, PC-3 xenografts, read-out: Tumor-to-liver ratio, non-blocked group",2 ± 0.4
same,tissue to tissue ratio at 1 h,"[3]; Balb/c nu/nu, tumor and muscle, PC-3 xenografts, read-out: Tumor-to-muscle ratio, non-blocked group",125 ± 50
same,tissue to tissue ratio at 1 h,"[3]; Balb/c nu/nu, tumor and pancreas, PC-3 xenografts, read-out: Tumor-to-pancreas ratio, non-blocked group",1.1 ± 0.2
same,tissue to tissue ratio at 1 h,"[3]; Balb/c nu/nu, tumor and spleen, PC-3 xenografts, read-out: Tumor-to-spleen ratio, non-blocked group",51 ± 18
same,tissue uptake at 1 h,"[3]; Balb/c nu/nu, tumor, PC-3 xenografts, 40 pmol / 30 kBq co-injected with 5 nmol NOTA-PEG2-RM26, average ± SD, read-out: Uptake in tumor, blocked",0.89 ± 0.07 %ID/g
same,tissue uptake at 1 h,"[3]; blood, Balb/c nu/nu mice with PC-3 xenografts, 40 pmol / 30 kBq, kit stored 18 months, average ± SD, read-out: Uptake in blood, non-blocked",0.3 ± 0.2 %ID/g
same,tissue uptake at 1 h,"[3]; bone, Balb/c nu/nu mice with PC-3 xenografts, 40 pmol / 30 kBq, kit stored 18 months, average ± SD, read-out: Uptake in bone, non-blocked",0.09 ± 0.05 %ID/g
same,tissue uptake at 1 h,"[3]; kidneys, Balb/c nu/nu mice with PC-3 xenografts, 40 pmol / 30 kBq, kit stored 18 months, average ± SD, read-out: Uptake in kidneys, non-blocked",5 ± 0.4 %ID/g
same,tissue uptake at 1 h,"[3]; liver, Balb/c nu/nu mice with PC-3 xenografts, 40 pmol / 30 kBq, kit stored 18 months, average ± SD, read-out: Uptake in liver, non-blocked",2.9 ± 0.8 %ID/g
same,tissue uptake at 1 h,"[3]; muscle, Balb/c nu/nu mice with PC-3 xenografts, 40 pmol / 30 kBq, kit stored 18 months, average ± SD, read-out: Uptake in muscle, non-blocked",0.05 ± 0.02 %ID/g
same,tissue uptake at 1 h,"[3]; pancreas, Balb/c nu/nu mice with PC-3 xenografts, 40 pmol / 30 kBq, kit stored 18 months, average ± SD, read-out: Uptake in pancreas, non-blocked",6 ± 1 %ID/g
same,tissue uptake at 1 h,"[3]; spleen, Balb/c nu/nu mice with PC-3 xenografts, 40 pmol / 30 kBq, kit stored 18 months, average ± SD, read-out: Uptake in spleen, non-blocked",0.13 ± 0.05 %ID/g
same,tissue uptake at 1 h,"[3]; tumor, Balb/c nu/nu mice with PC-3 xenografts, 40 pmol / 30 kBq, kit stored 18 months, average ± SD, read-out: Uptake in tumor, non-blocked",6 ± 1 %ID/g
same,"Cell-associated radioactivity, non-blocked versus pre-blocked receptors","[4]; freshly prepared kit, 1 h at 37 °C, pre-blocking with 1 µM NOTA-PEG2-RM26, p < 0.0001, n = 3",significant difference
same,Binding to non-blocked GRPR versus pre-blocked GRPR on PC-3 cells,"[4]; kit stored for 18 months, purified with Sep-Pak, pre-blocking with 1 µM NOTA-PEG2-RM26",significantly higher
same,Absorbed doses in healthy organs and tissues,[5],low absorbed doses
same,Tolerability of single injections,[5],well tolerated
same,Equilibrium dissociation constant,[6],low nanomolar range
